Assay results reported in patent publication US9440990B2, “1-arylcarbonyl-4-oxy-piperidine compounds useful for the treatment of neurodegenerative diseases” (TAKEDA PHARMACEUTICAL COMPANY LIMITED, priority 2011, dated 2016).

What was measured:
24-HC in the brain = assay: Quantification test of 24-HC in mouse brain after repeated oral administration; assay type: in vivo; details: brain 24-HC; female C57BL/6N mice; 10 mg/kg orally once a day for 3 days; 16 hours after the third administration; relative to control group as 100%
Description: Animals used were 6-week-old female C57BL/6N mice (3 mice/group). A test compound was suspended in a 0.5% aqueous methylcellulose [133-14255 WAKO] solution (1 mg/mL). The body weight of the mice was measured, and the solution was forcibly administered orally and repeatedly once a day for 3 days. At 16 hours after the third administration, half of the brain was recovered, and the amount of 24-HC was measured.
The wet weight of the brain was measured, and the brain was homogenized with about 4-fold amount (0.5 mL) of saline. This solution was used as a brain extract. 24-HC in the brain extract was extracted with an acetonitrile solution (98% acetonitrile, 1.98% methanol, 0.02% formic acid), and quantified by HPLC. The average value of 24-HC amount was calculated and the results are shown in relative values with the control group as 100%.

[1] = system: APP/PS1 double transgenic mouse; assay: Y-maze test using APP/PS1 double transgenic mouse; assay type: in vivo; details: 16 hours after the 13th administration
Description: Animals used were 3-month-old female APP/PS1 double transgenic mice (10-15 mice/group). A test compound was suspended in a 0.5% aqueous methylcellulose [133-14255 WAKO] solution (1 mg/mL). The body weight of the mice was measured, and the solution was forcibly administered orally and repeatedly once a day for 14 days. At 16 hours after the 13th administration, spontaneous alternation behavior in Y-maze test was evaluated. Using a particular arm of a Y-shaped test apparatus as the starting point, the frequency of moving to a different arm was counted for 5 min. The first two times of entry were excluded from the total number of entry. In addition, the mice that entered less than 10 times in total were excluded. Movement to an arm different from the arm into which the mouse entered last but one was considered an alternation behavior, and the ratio to the total number of moving was calculated as a spontaneous alternation behavior rate. As comparison subjects, a control group (test compound-non treatment group) and a control group in wild-type mice were used.

Structure (SMILES) | decrease rate (%) at 10 mg/kg (24-HC in the brain) [%] | Spontaneous alternation behavior rate (%) ([1]; 10 mg/kg orally once a day) | Spontaneous alternation behavior rate (%) ([1]; 30 mg/kg orally once a day)
O=C(c1cccnc1-c1ccncn1)N1CCC(O)(Cc2ccccc2)CC1 [Example 54, (4-benzyl-4-hydroxypiperidin-1-yl) (2-(pyrimidin-4-yl)pyridin-3-yl)methanone] | 64 | – | –
O=C(c1cccnc1-c1ccncn1)N1CCC(O)(Cc2ccc(F)cc2)CC1 [Example 92, (4-(4-fluorobenzyl)-4-hydroxypiperidin-1-yl) (2-(pyrimidin-4-yl)pyridin-3-yl)methanone] | 60 | – | –
N#Cc1ccc(CC2(O)CCN(C(=O)c3cccnc3-c3ccncc3)CC2)cc1 [Example 70, 4-((1-(2,4′-bipyridin-3-ylcarbonyl)-4-hydroxypiperidin-4-yl)methyl)benzonitrile] | 60 | – | –
O=C(c1cccnc1-c1ccncc1)N1CCC(O)(Cc2ccc(F)cc2)CC1 [Example 67, 2,4′-bipyridin-3-yl (4-(4-fluorobenzyl)-4-hydroxypiperidin-1-yl)methanone] | 43 | – | –
O=C(c1cccnc1-c1ccncc1)N1CCC(O)(Cc2ccc(F)cc2F)CC1 [Example 87, 2,4′-bipyridin-3-yl (4-(2,4-difluorobenzyl)-4-hydroxypiperidin-1-yl)methanone] | 37 | – | –
O=C(c1cccnc1-c1ccncn1)N1CCC(O)(Cc2ccc(F)cc2F)CC1 [Example 105, (4-(2,4-difluorobenzyl)-4-hydroxypiperidin-1-yl) (2-(pyrimidin-4-yl)pyridin-3-yl)methanone] | 40 | – | –
Cc1nc(-c2ccncn2)c(C(=O)N2CCC(O)(Cc3ccc(F)cc3)CC2)s1 [Example 62, (4-(4-fluorobenzyl)-4-hydroxypiperidin-1-yl) (2-methyl-4-(pyrimidin-4-yl)-1,3-thiazol-5-yl)methanone] | 71 | – | –
O=C(c1ccccc1-c1ccncn1)N1CCC(O)(Cc2ccccc2)CC1 [Example 14, (4-benzyl-4-hydroxypiperidin-1-yl) (2-(pyrimidin-4-yl)phenyl)methanone] | 67 | – | –
O=C(c1cccnc1-c1ccncc1)N1CCC(O)(Cc2ccccc2)CC1 [Example 44, (4-benzyl-4-hydroxypiperidin-1-yl) (2,4′-bipyridin-3-yl)methanone] | – | 71 | 71
O=C(c1ccc(F)cc1-c1ccncc1)N1CCC(O)(Cc2ccccn2)CC1 [Example 30, (4-fluoro-2-(pyridin-4-yl)phenyl) (4-hydroxy-4-(pyridin-2-ylmethyl)piperidin-1-yl)methanone] | 87 | – | –
